Measurements published in a melting point compilation (Tetko et al.; mined from patent text by program, amines drawn as free bases though some values may be those of a salt).

melting point | SMILES
218 to 220 °C | COc1ccc(-c2nc(C)c(C(N)=O)s2)cc1OC
216 to 217 °C | CCc1nn2ccccc2c1-c1n[nH]c(=O)cc1C
193 to 195 °C | COc1ccc2c(c1)C(=O)C(CN1CCC(O)(c3ccc(F)cc3)CC1)CC2 (stereo not given)
229 to 230 °C | Cc1cc(-c2nc3ccc(CN4CCN(C)CC4)cc3c(=O)[nH]2)cc(C)n1
117 to 118 °C | CCOC(=O)c1cc2c(nc1C)C(=Cc1cccs1)CCC2
100 to 101 °C | NS(=O)(=O)NCC1CCc2ccccc2O1 (stereo not given)
212 °C | C/C=C(/c1ccc(C(=O)O)cc1)c1ccc2c(c1)C(C)(C)CCC2(C)C
354 to 360 °C | Cc1nc2cc(-c3ccc(C=C4SC(=O)NC4=O)cc3)cc(C34CC5CC(CC(C5)C3)C4)c2o1
150 °C | COc1ccc(C(=O)c2c(Cl)cc(Cl)cc2Cl)cc1Cc1ccc(=O)n(C)n1
236 °C | Nc1nc2ccccc2c2c1nc(C1CCOC1)n2CCOc1ccccc1 (stereo not given)
177 to 178 °C | CCCOc1ccc(S(=O)(=O)C(C)C)cc1C(N)=O
104 to 106 °C | C[C@H](CSC(=O)c1ccccc1)C(=O)N1C(=O)N(Cc2ccccc2)C[C@H]1C(=O)OC(C)(C)C
135 to 136 °C | CC(C)c1cn2ccccc2c1S(=O)(=O)c1ccc(OCCCN2CCN(c3ccccc3)CC2)cc1
108 to 113 °C | O[C@@H](CNCCOc1ccc2oc(-c3noc(C(F)(F)F)n3)cc2c1)COc1ccccc1
65 to 66.5 °C | C#CC(CCCCC)OC(c1ccccc1)(c1ccccc1)c1ccccc1 (stereo not given)
184 °C | Cc1oncc1-c1ccc(OC2SCC(O)C(O)C2O)cn1 (stereo not given)
195 °C | C=C(c1ccc(C(=O)O)s1)c1cc2cc(C(F)(F)F)ccc2n1S(=O)(=O)c1cccc(C(C)(C)C)c1
72 to 74 °C | CCOC(=O)C1=C(N)C(NCC(O)COCc2cccc(CN3CCCCC3)c2)=NS1(=O)=O (stereo not given)
139 to 140 °C | CC(=O)NCc1ccc(CN2CCN(c3nc(Cl)cc(Cl)n3)CC2)cc1
150 to 152 °C | Cn1cc(CC2CCN(CCN3c4cccc5cccc(c45)S3(=O)=O)CC2)c2cc(F)ccc21

melting point | SMILES
87 to 89 °C | N#CC1CC(=O)c2cc(F)ccc2O1 (stereo not given)
96 to 98 °C | CS(=O)(=O)Nc1ccc(OCCBr)c(Cl)c1
178 to 179 °C | COC1C=C(C)C(=O)CC(C)(C)C1OC(=O)c1ccc(N)cc1N (stereo not given)
112 to 114 °C | CCc1c2ccccc2nc2c1c(C)nn2-c1ccccn1
188 to 190 °C | Cc1[nH]cnc1CN1CCc2c(c3cccc(F)c3n2C)C1
133 to 134 °C | CCCc1nc(NS(=O)(=O)c2ccc(C(C)(C)C)cc2)c(-c2ccc(C)cc2)c(OCCO)n1
70 to 73 °C | O=C1CC(c2ccc(F)cc2)c2ccc(F)cc21 (stereo not given)
79 to 81 °C | CSc1ncnn1C[C@]1(c2ccc(F)c(F)c2)O[C@@H]1c1ccccc1Cl (relative stereo)
124 to 127 °C | COc1ccc2c(c1)CCC(c1ccc(F)cc1)C2=O (stereo not given)
74 to 75 °C | CCOC(=O)c1cn(-c2ccc(C(F)(F)F)cc2)nc1C(C)C
202 to 204 °C | Oc1ccc(C2=C(c3ccc(OCCCCCI)cc3)c3ccc(O)cc3CCC2)cc1
205 to 206 °C | O=C1Nc2ccc(NC(=O)C(=O)N3CCC(Cc4ccc(F)cc4)CC3)cc2C1=O
160 °C | COC(=O)c1sc2ccc(OC)cc2c1OCC#N
144 °C | CCN(CC)CCOc1ccc(Nc2ncc3c(n2)N(C)C(=O)N(c2ccccc2Br)C3)cc1
130 to 132 °C | COc1c(N)ccc2c1C(CCNC(C)=O)CC2 (stereo not given)
90.5 to 91 °C | Cc1cc(C)c2c(c1O)C(=O)C(c1ccccc1)C2 (stereo not given)
79 to 80 °C | CCCNC(=O)NCCc1c[nH]c2ccc(OC)cc12
103 °C | CC(C)c1ccc(-c2nc(COc3ccc(OC(C)(C)C(=O)O)cc3)no2)cc1
256 to 257 °C | O=C(O)CCC(=O)Nc1ccc2oc(-c3ccc(O)cc3)c(O)c(=O)c2c1
98 to 100 °C | CCOC(=O)c1cc2c(C(F)(F)F)cc(OCC(=O)OC(C)(C)C)cc2n1C

melting point | SMILES
111 to 112 °C | N#Cc1nc(C=Cc2cnn(-c3c(Cl)cc(C(F)(F)F)cc3Cl)n2)[nH]c1C#N
163 to 164 °C | O=Cc1c2ccccc2cc2cc3ccccc3cc12
165 °C | COc1cccc2c(=O)cc(N3CCOCC3)oc12
124 to 126 °C | CCOC(C)n1c(Cl)c(Cl)c(C#N)c1-c1ccc(Cl)c(Cl)c1 (stereo not given)
188 to 189 °C | CCCC(=O)NC1=CC(=O)c2ccc(C)nc2C1=O
77.8 to 79.2 °C | CCCCOc1ccc(CO)c(Oc2ncc(C(F)(F)F)cc2Cl)c1
74 to 76 °C | CC(CCO)N1CCC(Cc2ccccc2)CC1 (stereo not given)
181 to 182 °C | COc1cc(CN2C(C(=O)O)=C(c3ccc4c(c3)OCO4)c3ccccc3S2(=O)=O)cc2c1OCO2
209 to 213 °C | CCCCOc1ccc(S(C)(=O)=O)cc1-c1nc2c(CC)n(C3CN(C(C)C)C3)nc2c(=O)[nH]1
202 to 205 °C | CCCCn1c(=O)c(-c2c(Cl)cccc2Cl)cc2cnc(N)nc21
216 to 218 °C | CC(C)(C)C1=CC(=CC#Cc2ccc(C(=O)O)cc2)C=C(C(C)(C)C)C1=O
189 to 192 °C | CSc1cc(C)nc(SC)c1NC(=O)CCCCCCSc1nc2ccccc2[nH]1
88 to 90 °C | Cc1ccc(S(=O)(=O)OCC2Cc3cccc(-c4cccc(F)c4)c3O2)cc1 (stereo not given)
216 to 217 °C | CCc1nc2c(N)nc3ccccc3c2n1OC
99 to 100 °C | COC[C@H](C1CC1)n1cc(Cl)nc(Nc2cc(C)c(OC)nc2C)c1=O
220 to 222 °C | CC1CCc2ccc(Cl)c3c(=O)c(C(=O)O)cn1c23 (stereo not given)
160 to 162 °C | COc1cc(C(=O)O)cc(OC)c1CC(C)C
176 to 177 °C | Cc1nc2c(cc1CCCO)c(=O)c(C(=O)NCc1ccc(Cl)cc1)cn2C

Continued, molecule first:

SMILES | melting point
C=C(CCCCCCCCCCCCCCCC)CC(CO)COCCCCCCCCCCCCCCCC (stereo not given) | 37 to 38 °C
FC(F)(F)c1ccc(-c2cc(C(F)(F)F)n3ncc(-c4nc(-c5cccnc5)no4)c3n2)cc1 | 199 °C
CC(C)(C)OC(=O)Nc1cc(Cl)c(I)cc1[N+](=O)[O-] | 82 to 84 °C
Cn1c(C(N)=O)c(-c2ccc(N)cc2)c2ccccc21 | 96 to 98 °C
COC(=O)c1ccc(OC)cc1-c1ccc(C(F)(F)F)cc1 | 93 to 94 °C
Cc1cc2n(c(=O)n1)C(C)N=C2 (stereo not given) | 231 to 232 °C
O=C(NCCCSc1ccncc1)c1ccccc1CO | 110 to 111 °C
O=S(=O)(C#Cc1ccccc1)c1ccccc1 | 73 °C
CN1CCC(=C2c3cc(Br)ccc3C=Cn3cccc32)CC1 | 138 to 142 °C
OC1(c2ccc3c(c2)OCO3)CCC2(CC1)OCCO2 | 95 to 96 °C
CNC(=S)n1nc(C=Cc2ccc(Cl)cc2)nc1N | 209 to 210 °C
NCC1Cc2cc(-c3ccccc3)cc(-c3cccc(F)c3)c2O1 (stereo not given) | > 250 °C
CC(=O)NCC1CC(c2cc(F)c(F)c(F)c2)=NO1 (stereo not given) | 136 to 137 °C
CC(C)(O)COC(=O)N1CCN(C#N)CC1 | 90 to 92 °C
COC(=O)C#CC(=O)c1ccc(OC)cc1 | 68 °C
CONS(=O)(=O)c1c(C)nn(C)c1Cl | 120 to 122 °C
O=[N+]([O-])c1cc(O)c(Br)cc1F | 124 to 126 °C
c1csc(CNc2nccc3ccccc23)c1 | 86.5 to 87.5 °C
CC(=O)C=CC=Cc1ccc(OCc2ccccc2)cc1 | 132 to 133 °C
Cc1nc2c(s1)-c1nc(N)ncc1CC2 | 241 to 243 °C
NC(=O)NC1CCC(OC(=O)c2ccccc2)c2sccc21 (stereo not given) | 199 to 205 °C
CC12CC(N3CCC(O)CC3)C(O)CC1CCC1C2CCC2(C)C(O)C(N3CCCC3)CC12 (stereo not given) | 188 to 190 °C
CC12CCC3C(CCC4(O)CC(O)CCC34CO)C1(O)CCC2c1ccnnc1 (stereo not given) | 138 to 140 °C
O=C(O)c1cccc(Nc2nc(Oc3ccccc3)nc(Oc3ccc(Cl)cc3)n2)c1 | 244 to 247 °C

SMILES | melting point
CNC(=S)C1(c2cnc3ccccc3c2)CCCCC1=CC=O (stereo not given) | 149 to 151 °C
Cc1nn(-c2ccccc2)c(-c2ccccc2)c1CC(=O)O | 159 to 161 °C
CC(C(=O)CCl)c1cccc(C(=O)c2ccccc2)c1 (stereo not given) | 60 °C
CCSC(=N)Nc1ccc2[nH]cc(C3=CCN(C)CC3)c2c1 | 77 to 79 °C
O=C(N[C@H](Cc1cccc(C(F)(F)F)c1)[C@@H](O)c1ccc(F)cc1)c1cccc2ccccc12 (racemic) | 158 to 159 °C
CN1CCSC1=NC(=O)CCC(=O)N=C1SCCN1C | 181 to 183 °C
CCCNC1CCc2nc(N)sc2C1 (stereo not given) | 145 to 150 °C
CCC12CC3CC(CC(C)(C3)C1)C2 | < 80 °C
OCC1OC(n2cnc3c(NC4C=CCC4O)ncnc32)C(O)C1O (stereo not given) | 212 to 214 °C
CN(C)c1n[nH]c(=O)n1N(C)C | 93 °C
O=S1(=O)NC(c2cccc(F)c2)c2ccccc21 (single isomer, unassigned; (+)) | 148 °C
Cc1nc2cc(NC(=O)c3ccccc3O)ccc2o1 | 202 to 206 °C
CCC(=C(c1ccc(O)cc1)c1ccc(O)cc1)c1cccc(/C=C/C(=O)O)c1 | 280 to 281 °C
COC(=O)c1ccc(C(=O)Nc2ccccc2OC)cc1 | 119 to 121 °C
Oc1ccc(Nc2cc(-c3cn(C(c4ccccc4)(c4ccccc4)c4ccccc4)nc3-c3ccccn3)ccn2)cc1 | 198 °C
COC(=O)c1nc(N2CCCC2)ccc1O | 82.5 to 84 °C
Cc1nc(NC(=O)c2ccccc2)sc1C(=O)NNC(=O)c1ccccc1 | 258 to 260 °C
CC(C)(C)c1ccc(/C=C/C(=O)Nc2ccc3ncoc3c2)cc1 | 147 to 148 °C
CON1C(=O)CC2(CCN(C(=O)CCN3C=CCC(C(N)=O)=C3)CC2)C1=O | 64 to 80 °C
CSc1[nH]c2cccc3c2c1CC1C3CC(C)CN1C (stereo not given) | 201 to 202 °C
O=C(NCCc1c[nH]c2ccccc12)c1cccnc1 | 150 to 152 °C
Cc1cc2ncccc2[nH]1 | 193 to 195 °C
O=C(NC1CCCCC1)C(Br)c1ccccc1 (stereo not given) | 126 to 127 °C
